Data: patent US20240279283A1, “CYCLIC PEPTIDE ANTIBIOTICS” (priority 2021, published 2024)
Bridge positions count the residues as written; N and C are the ends. Square brackets hold non-standard residues; d marks the D form. Peptide text beside a SMILES is read from it. 1Nal = N[C@@H](Cc1cccc2ccccc12)C(=O)O; His(π-Me) = Cn1cncc1C[C@H](N)C(=O)O; NMeF = CN[C@@H](Cc1ccccc1)C(=O)O; Abu = CC[C@H](N)C(=O)O; Aib = CC(C)(N)C(=O)O

Tests used:
E. coli BW25113 = test: Minimum Inhibitory Concentration (MIC) determination, E. coli BW25113; type: cell-based; parameters: unit not given here; details: LB broth, 5×10^5 CFU/ml, 37° C., 18 hours, scored by eye
Description: (§1) MICs were determined by performing two-fold serial dilutions of peptides in LB broth to a final volume of 0.1 ml in round-bottom 96-well assay plates (Corning Life Sciences No 3788). Peptides were initially resuspended in 100% DMSO to 10 mM and subsequently diluted in LB medium to the appropriate concentration. Each well was inoculated with 5×10^5 CFU/ml of the screening stain and incubated at 37° C. without agitation for 18 hours. Plates were scored by eye, and the lowest compound concentration preventing visible growth was determined to be the MIC.

E. coli 25922 IMP = test: Minimum Inhibitory Concentration (MIC) determination, E. coli 25922 IMP; type: cell-based; details: LB broth, 5×10^5 CFU/ml, 37° C., 18 hours, scored by eye
Description: as §1

SMILES | MIC E. coli BW25113 WUXI::MIC (E. coli BW25113) | MIC E. coli 25922 IMP WUXI::MIC (E. coli 25922 IMP)
CC[C@H](C)[C@@H]1NC(=O)[C@H]([C@@H](C)O)NC(=O)[C@H](Cc2cncn2C)NC(=O)[C@H](Cc2ccccc2)NC(=O)CSC[C@@H](C(=O)NCC(N)=O)NC(=O)[C@H](Cc2ccccc2)NC(=O)[C@H](Cc2c[nH]c3ccccc23)NC(=O)[C@H](Cc2ccc(O)cc2)NC(=O)[C@H](Cc2cncn2C)NC(=O)[C@H](Cc2ccccc2)NC(=O)C(C)(C)NC(=O)[C@H](CCCNC(=N)N)NC(=O)[C@H](CCCCN)NC(=O)[C@H](CCCNC(=N)N)NC1=O [Compound 54, trifluoroacetic acid] ({CH2CO}-F[His(π-Me)]TIRKR[Aib]F[His(π-Me)]YWFCG-NH2; thioether N-14) | 8 | 0.5
CC(C)[C@@H]1NC(=O)[C@H](Cc2ccccc2)NC(=O)CSC[C@@H](C(=O)NCC(N)=O)NC(=O)[C@H](Cc2cncn2C)NC(=O)[C@H](CCCNC(=N)N)NC(=O)[C@H](Cc2cnc[nH]2)NC(=O)[C@H](Cc2ccccc2)N(C)C(=O)[C@H](CCCNC(=N)N)NC(=O)[C@H](CO)NC(=O)CNC(=O)[C@H](Cc2c[nH]cn2)NC(=O)[C@H](Cc2cccc3ccccc23)NC1=O [Compound 6, (3R,6S,9S,12S,15S,18S,21S,27S,30S, 33S,36S)-N-(2-amino-2-oxo-ethyl)-15,36-dibenzyl-9,18-bis(3-guanidinopropyl)-21-(hydroxymethyl)-12,27-bis(1H-imidazol-4-ylmethyl)-33-isopropyl-16-methyl-6-[(3-methylimidazol-4-yl)methyl]-30-(1-naphthylmethyl)-5,8,11,14,17,20,23,26,29,32,35,38-dodecaoxo-1-thia-4,7,10,13,16,19,22,25,28,31,34,37-dodecazacyclononatriacontane-3-carboxamide] ({CH2CO}-FV[1Nal]HGSR[NMeF]HR[His(π-Me)]CG-NH2; thioether N-12) | 2 | <0.000125
CC[C@@H]1NC(=O)[C@H](Cc2ccccc2)NC(=O)CSC[C@@H](C(=O)NCC(N)=O)NC(=O)[C@H](Cc2cncn2C)NC(=O)[C@H](CC)NC(=O)[C@H](Cc2c[nH]cn2)NC(=O)[C@H](Cc2ccccc2)N(C)C(=O)[C@H](CCCNC(=N)N)NC(=O)[C@H](CO)NC(=O)CNC(=O)[C@H](Cc2c[nH]cn2)NC(=O)[C@H](Cc2cccc3ccccc23)NC1=O [Compound 5, (3R,6S,9S,12S,15S,18S,21S,27S,30S, 33S,36S)-N-(2-amino-2-oxo-ethyl)-15,36-dibenzyl-9,33-diethyl-18-(3-guanidinopropyl)-21-(hydroxymethyl)-12,27-bis(1H-imidazol-4-ylmethyl)-16-methyl-6-[(3-methylimidazol-4-yl)methyl]-30-(1-naphthylmethyl)-5,8,11,14,17,20,23,26,29,32,35,38-dodecaoxo-1-thia-4,7,10,13,16,19,22,25,28,31,34,37-dodecazacyclononatriacontane-3-carboxamide] ({CH2CO}-F[Abu][1Nal]HGSR[NMeF]H[Abu][His(π-Me)]CG-NH2; thioether N-12) | >32 | 0.016
CC[C@@H]1NC(=O)[C@H](Cc2c[nH]cn2)NC(=O)[C@H](Cc2ccccc2)N(C)C(=O)[C@H](CC)NC(=O)[C@H](CO)NC(=O)CNC(=O)[C@H](Cc2c[nH]cn2)NC(=O)[C@H](Cc2cccc3ccccc23)NC(=O)[C@H](C(C)C)NC(=O)[C@H](Cc2ccccc2)NC(=O)CSC[C@@H](C(=O)NCC(N)=O)NC(=O)[C@H](Cc2cncn2C)NC1=O [Compound 8, (3R,6S,9S,12S,15S,18S,21S,27S,30S, 33S,36S)-N-(2-amino-2-oxo-ethyl)-15,36-dibenzyl-9,18-diethyl-21-(hydroxymethyl)-12,27-bis(1H-imidazol-4-ylmethyl)-33-isopropyl-16-methyl-6-[(3-methylimidazol-4-yl)methyl]-30-(1-naphthylmethyl)-5,8,11,14,17,20,23,26,29,32,35,38-dodecaoxo-1-thia-4,7,10,13,16,19,22,25,28,31,34,37-dodecazacyclononatriacontane-3-carboxamide] ({CH2CO}-FV[1Nal]HGS[Abu][NMeF]H[Abu][His(π-Me)]CG-NH2; thioether N-12) | >32 | 4
CC[C@H](C)[C@@H]1NC(=O)[C@H]([C@@H](C)O)NC(=O)[C@H](Cc2cncn2C)NC(=O)[C@H](Cc2ccccc2)NC(=O)CSC[C@@H](C(=O)NCC(N)=O)NC(=O)[C@H](Cc2ccc(O)cc2)NC(=O)[C@H](Cc2c[nH]c3ccccc23)NC(=O)[C@H](Cc2ccc(O)cc2)NC(=O)[C@H](Cc2cncn2C)NC(=O)[C@H](Cc2ccccc2)NC(=O)C(C)(C)NC(=O)[C@H](CCCNC(=N)N)NC(=O)[C@H](CCCNC(=N)N)NC(=O)[C@H](CCCNC(=N)N)NC1=O [Compound 53] ({CH2CO}-F[His(π-Me)]TIRRR[Aib]F[His(π-Me)]YWYCG-NH2; thioether N-14) | 4 | 0.25
CC[C@@H]1NC(=O)[C@H](Cc2ccccc2)NC(=O)CSC[C@@H](C(=O)NCC(N)=O)NC(=O)[C@H](Cc2cncn2C)NC(=O)[C@H](CCCNC(=N)N)NC(=O)[C@H](Cc2cnc[nH]2)NC(=O)[C@H](Cc2ccccc2)N(C)C(=O)[C@H](CCCNC(=N)N)NC(=O)[C@H](CO)NC(=O)CN(C)C(=O)[C@H](Cc2cnc[nH]2)NC(=O)[C@H](Cc2c[nH]c3ccccc23)NC1=O (racemic) [Compound 11, rac-(3R,6S,9S,12S,15S,18S,21S,27S,30S, 33S,36S)-N-(2-amino-2-oxo-ethyl)-15,36-dibenzyl-33-ethyl-9,18-bis(3-guanidinopropyl)-21-(hydroxymethyl)-12,27-bis(1H-imidazol-5-ylmethyl)-30-(1H-indol-3-ylmethyl)-16,25-dimethyl-6-[(3-methylimidazol-4-yl)methyl]-5,8,11,14,17,20,23,26,29,32,35,38-dodecaoxo-1-thia-4,7,10,13,16,19,22,25,28,31,34,37-dodecazacyclononatriacontane-3-carboxamide] | 8 | 1.9074E−06
CC[C@@H]1NC(=O)[C@H](Cc2ccccc2)NC(=O)CSC[C@@H](C(=O)NCC(N)=O)NC(=O)[C@H](Cc2cncn2C)NC(=O)[C@H](CCCNC(=N)N)NC(=O)[C@H](Cc2cnc[nH]2)NC(=O)[C@H](Cc2ccc(O)cc2)N(C)C(=O)[C@H](CCCNC(=N)N)NC(=O)[C@H](CO)NC(=O)CNC(=O)[C@H](Cc2cnc[nH]2)NC(=O)[C@H](Cc2c[nH]c3ccccc23)NC1=O (racemic) [Compound 12] | 1 | 3.8137E−06
CC[C@H](C)[C@@H]1NC(=O)C(C)(C)NC(=O)[C@H](Cc2cncn2C)NC(=O)[C@H](Cc2ccccc2)NC(=O)CSC[C@@H](C(=O)NCC(N)=O)NC(=O)[C@H](Cc2ccc(O)cc2)NC(=O)[C@H](Cc2c[nH]c3ccccc23)NC(=O)[C@H](Cc2ccc(O)cc2)NC(=O)[C@H](Cc2cncn2C)NC(=O)[C@H](Cc2ccccc2)NC(=O)C(C)(C)NC(=O)[C@H](CCCNC(=N)N)NC(=O)[C@H](CCCCN)NC(=O)[C@H](CCCNC(=N)N)NC1=O [Compound 56] ({CH2CO}-F[His(π-Me)][Aib]IRKR[Aib]F[His(π-Me)]YWYCG-NH2; thioether N-14) | >32 | 8
